Experiments:
c-Kit = c-Kit (Homo sapiens, UniProt P10721); assay: Kinase inhibition c-Kit; assay type: biochemical
c-Abl = c-Abl (Homo sapiens, UniProt P00519); assay: Kinase inhibition c-Abl; assay type: biochemical
c-src = c-src (Homo sapiens, UniProt P12931); assay: Kinase inhibition c-src; assay type: biochemical
P19 cells = assay: Neuronal differentiation in P19 cell monolayers (morphology, immunostaining with neuronal markers); assay type: cell-based; conditions: 1 μM
HER-2 = HER-2 (Homo sapiens, UniProt P04626); assay: Kinase inhibition HER-2; assay type: biochemical
Tek = Tek (Homo sapiens, UniProt Q02763); assay: Kinase inhibition Tek; assay type: biochemical
[1] = tested on: GSK-3β/β-catenin signaling; assay: GSK-3β/β-catenin-dependent signaling, TCF/LEF (pTOPFLASH) luciferase reporter in P19 cells; assay type: cell-based; conditions: 10 μM, 36 hours
Procedure: P19 cells are co-transfected with pTOPFLASH (containing four consensus LEF-1/TCF-1 binding sites, a minimal promoter and a firefly luciferase reporter) and renilla luciferase control reporter (Promega). […] Thirty-six hours later, cells are lysed and protein extracts are assayed for luciferase activity. The fold induction offirefly luciferase activity is normalized to renilla luciferase activity. The normalized activities are averaged over three experiments.

HER-1 = HER-1 (Homo sapiens, UniProt P00533); assay: Kinase inhibition HER-1; assay type: biochemical
Flt-1 = Flt-1 (Homo sapiens, UniProt P17948); assay: Kinase inhibition Flt-1; assay type: biochemical
PDGFR-β = PDGFR-β (Homo sapiens, UniProt P09619); assay: Kinase inhibition PDGFR-β; assay type: biochemical
Flt-4 = Flt-4 (Homo sapiens, UniProt P35916); assay: Kinase inhibition Flt-4; assay type: biochemical
KDR = KDR (Homo sapiens, UniProt P35968); assay: Kinase inhibition KDR; assay type: biochemical

c-Abl, sequence (P00519 whole entry): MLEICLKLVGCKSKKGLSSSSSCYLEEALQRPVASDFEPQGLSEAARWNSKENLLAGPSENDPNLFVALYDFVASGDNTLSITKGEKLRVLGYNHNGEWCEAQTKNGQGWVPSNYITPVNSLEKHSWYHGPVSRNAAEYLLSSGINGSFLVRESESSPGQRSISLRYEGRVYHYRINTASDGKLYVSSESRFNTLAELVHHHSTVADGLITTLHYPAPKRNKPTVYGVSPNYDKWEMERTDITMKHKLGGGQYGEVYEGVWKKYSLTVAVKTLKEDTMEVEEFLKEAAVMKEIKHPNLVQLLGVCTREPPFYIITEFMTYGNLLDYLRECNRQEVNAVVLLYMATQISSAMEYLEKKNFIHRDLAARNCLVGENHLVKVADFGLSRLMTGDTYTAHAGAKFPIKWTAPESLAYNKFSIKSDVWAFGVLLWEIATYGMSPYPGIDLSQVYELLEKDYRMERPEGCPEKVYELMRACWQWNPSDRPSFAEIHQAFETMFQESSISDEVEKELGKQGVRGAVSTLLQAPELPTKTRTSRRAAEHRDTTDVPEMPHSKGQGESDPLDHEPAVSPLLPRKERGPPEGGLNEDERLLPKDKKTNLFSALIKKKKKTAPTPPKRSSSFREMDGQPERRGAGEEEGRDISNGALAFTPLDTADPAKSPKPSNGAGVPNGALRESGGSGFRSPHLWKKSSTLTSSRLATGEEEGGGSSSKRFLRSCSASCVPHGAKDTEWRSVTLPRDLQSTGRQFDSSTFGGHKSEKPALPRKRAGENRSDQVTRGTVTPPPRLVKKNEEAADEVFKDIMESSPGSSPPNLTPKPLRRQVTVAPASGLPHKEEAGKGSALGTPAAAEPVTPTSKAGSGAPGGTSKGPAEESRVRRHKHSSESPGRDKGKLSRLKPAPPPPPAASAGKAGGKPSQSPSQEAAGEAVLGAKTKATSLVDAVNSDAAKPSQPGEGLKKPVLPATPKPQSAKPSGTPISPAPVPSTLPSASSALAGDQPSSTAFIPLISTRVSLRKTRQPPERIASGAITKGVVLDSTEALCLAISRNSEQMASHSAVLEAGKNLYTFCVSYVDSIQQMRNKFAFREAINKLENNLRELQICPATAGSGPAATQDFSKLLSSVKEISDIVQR
c-Kit, sequence (P10721 26-976): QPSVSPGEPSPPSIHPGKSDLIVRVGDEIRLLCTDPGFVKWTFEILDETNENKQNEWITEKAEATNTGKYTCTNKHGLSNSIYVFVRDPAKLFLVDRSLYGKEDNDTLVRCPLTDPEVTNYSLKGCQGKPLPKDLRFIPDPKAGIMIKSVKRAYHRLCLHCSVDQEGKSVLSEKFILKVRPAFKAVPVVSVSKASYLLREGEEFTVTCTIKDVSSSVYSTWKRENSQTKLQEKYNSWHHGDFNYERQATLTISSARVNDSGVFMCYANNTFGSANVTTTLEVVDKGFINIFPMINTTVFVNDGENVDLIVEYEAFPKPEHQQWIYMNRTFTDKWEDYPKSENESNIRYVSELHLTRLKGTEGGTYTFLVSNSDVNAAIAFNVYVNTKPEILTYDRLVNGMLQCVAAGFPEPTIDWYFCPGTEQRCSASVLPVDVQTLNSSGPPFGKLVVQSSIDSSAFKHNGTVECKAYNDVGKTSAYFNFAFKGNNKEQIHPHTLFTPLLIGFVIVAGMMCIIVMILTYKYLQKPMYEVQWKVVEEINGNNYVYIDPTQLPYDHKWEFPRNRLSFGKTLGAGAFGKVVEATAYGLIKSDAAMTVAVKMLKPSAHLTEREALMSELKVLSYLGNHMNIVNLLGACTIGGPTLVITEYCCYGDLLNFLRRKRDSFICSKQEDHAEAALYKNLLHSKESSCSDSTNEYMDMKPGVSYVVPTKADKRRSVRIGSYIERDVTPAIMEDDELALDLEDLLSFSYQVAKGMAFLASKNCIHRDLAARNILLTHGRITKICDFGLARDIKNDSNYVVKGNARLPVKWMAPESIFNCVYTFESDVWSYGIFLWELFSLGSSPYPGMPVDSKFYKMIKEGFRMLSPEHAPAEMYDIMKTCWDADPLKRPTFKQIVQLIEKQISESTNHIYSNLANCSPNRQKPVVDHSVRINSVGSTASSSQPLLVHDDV
HER-2, sequence (P04626 23-1255, species assumed): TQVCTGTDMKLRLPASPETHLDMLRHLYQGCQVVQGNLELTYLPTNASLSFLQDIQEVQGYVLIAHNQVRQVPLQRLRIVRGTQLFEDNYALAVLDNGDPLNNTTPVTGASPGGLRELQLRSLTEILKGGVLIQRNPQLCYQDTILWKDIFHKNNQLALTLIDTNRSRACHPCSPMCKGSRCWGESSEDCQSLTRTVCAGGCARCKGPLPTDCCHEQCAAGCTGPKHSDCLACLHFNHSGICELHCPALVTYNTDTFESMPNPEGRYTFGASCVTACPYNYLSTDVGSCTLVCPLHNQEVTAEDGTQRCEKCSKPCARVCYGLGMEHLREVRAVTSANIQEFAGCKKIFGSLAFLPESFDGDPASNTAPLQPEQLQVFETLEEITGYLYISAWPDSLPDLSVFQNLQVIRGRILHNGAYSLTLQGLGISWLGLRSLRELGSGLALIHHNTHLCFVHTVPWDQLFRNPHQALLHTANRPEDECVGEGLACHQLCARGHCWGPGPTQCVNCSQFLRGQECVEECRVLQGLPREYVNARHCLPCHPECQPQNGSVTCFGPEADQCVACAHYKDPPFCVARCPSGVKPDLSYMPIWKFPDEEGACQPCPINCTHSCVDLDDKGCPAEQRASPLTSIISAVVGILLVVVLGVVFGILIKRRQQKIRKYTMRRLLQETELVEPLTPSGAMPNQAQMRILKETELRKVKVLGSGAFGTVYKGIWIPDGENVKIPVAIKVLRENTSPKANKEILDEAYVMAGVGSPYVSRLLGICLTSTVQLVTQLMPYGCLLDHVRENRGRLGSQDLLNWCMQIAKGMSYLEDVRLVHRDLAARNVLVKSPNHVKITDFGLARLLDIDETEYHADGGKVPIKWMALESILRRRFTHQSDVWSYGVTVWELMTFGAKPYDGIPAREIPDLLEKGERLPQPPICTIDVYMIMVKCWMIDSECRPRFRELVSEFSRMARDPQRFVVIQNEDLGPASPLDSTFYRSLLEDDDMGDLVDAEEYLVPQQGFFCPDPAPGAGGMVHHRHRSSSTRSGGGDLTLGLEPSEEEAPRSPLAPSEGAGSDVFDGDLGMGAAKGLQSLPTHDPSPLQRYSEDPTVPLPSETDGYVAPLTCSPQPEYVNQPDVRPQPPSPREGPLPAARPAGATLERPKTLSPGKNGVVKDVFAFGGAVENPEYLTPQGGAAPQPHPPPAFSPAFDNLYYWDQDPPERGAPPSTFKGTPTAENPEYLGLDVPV
Flt-4, sequence (P35916 25-1363, species assumed): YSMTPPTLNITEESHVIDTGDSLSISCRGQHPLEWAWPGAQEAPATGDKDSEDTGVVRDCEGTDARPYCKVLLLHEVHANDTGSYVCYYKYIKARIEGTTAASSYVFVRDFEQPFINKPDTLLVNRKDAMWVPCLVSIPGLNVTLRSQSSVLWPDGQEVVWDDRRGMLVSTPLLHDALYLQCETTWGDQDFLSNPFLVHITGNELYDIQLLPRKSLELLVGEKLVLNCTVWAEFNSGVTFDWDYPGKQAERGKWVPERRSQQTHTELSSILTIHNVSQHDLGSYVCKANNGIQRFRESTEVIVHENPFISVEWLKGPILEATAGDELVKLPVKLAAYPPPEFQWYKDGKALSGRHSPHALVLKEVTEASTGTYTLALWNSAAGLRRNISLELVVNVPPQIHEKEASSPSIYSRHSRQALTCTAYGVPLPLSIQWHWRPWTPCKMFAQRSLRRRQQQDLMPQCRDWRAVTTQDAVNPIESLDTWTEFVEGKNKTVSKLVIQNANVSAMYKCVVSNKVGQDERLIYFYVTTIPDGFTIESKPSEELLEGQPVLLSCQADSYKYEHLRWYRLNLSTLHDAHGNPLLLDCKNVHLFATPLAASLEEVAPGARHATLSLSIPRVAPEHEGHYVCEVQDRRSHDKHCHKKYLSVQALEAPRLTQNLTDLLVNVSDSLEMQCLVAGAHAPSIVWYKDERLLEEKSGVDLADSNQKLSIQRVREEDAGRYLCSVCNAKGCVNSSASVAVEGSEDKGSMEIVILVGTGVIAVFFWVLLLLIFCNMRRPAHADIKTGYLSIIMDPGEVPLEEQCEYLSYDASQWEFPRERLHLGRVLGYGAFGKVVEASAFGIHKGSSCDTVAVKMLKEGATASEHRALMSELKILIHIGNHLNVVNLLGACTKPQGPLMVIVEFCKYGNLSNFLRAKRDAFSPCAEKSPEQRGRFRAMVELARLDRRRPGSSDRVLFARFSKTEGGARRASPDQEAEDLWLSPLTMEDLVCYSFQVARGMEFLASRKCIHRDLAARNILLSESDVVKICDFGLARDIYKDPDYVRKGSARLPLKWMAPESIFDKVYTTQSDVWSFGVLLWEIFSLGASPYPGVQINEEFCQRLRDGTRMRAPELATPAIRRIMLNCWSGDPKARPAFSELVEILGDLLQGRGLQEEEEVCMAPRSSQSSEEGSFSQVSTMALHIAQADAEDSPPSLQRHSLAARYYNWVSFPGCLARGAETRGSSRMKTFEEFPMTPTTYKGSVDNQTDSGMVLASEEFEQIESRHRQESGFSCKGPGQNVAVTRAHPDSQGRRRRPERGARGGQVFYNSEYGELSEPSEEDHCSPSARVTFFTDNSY

inhibition at 10 µM (c-Kit; 10 μM): 100%
IC50 (c-Kit; read-out: IC50 against c-Kit): 20 nM
inhibition at 10 µM (c-Abl; 10 μM): 100%
IC50 (c-Abl; read-out: IC50 against c-Abl): 4.5 nM
inhibition at 10 µM (c-src): 100%
inhibition at 10 µM (HER-2; 10 μM): 100%
IC50 (HER-2; read-out: IC50 against HER-2): 30 nM
inhibition at 10 µM (Tek): 100%
inhibition at 10 µM (HER-1): 100%
inhibition at 10 µM (Flt-1): 100%
inhibition at 10 µM (PDGFR-β): 100%
inhibition at 10 µM (Flt-4): 100%
inhibition at 10 µM (KDR): 100%
Structure (SMILES): Nc1cccc(-c2cc3c(Oc4cccc(O)c4)ncnc3[nH]2)c1 [Example 1, 3-[6-(3-Amino-phenyl)-7H-pyrrolo[2,3-d]pyrimidin-4-yloxy]-phenol]
differentiation of P19 cells into glial and muscle cells (P19 cells): not detected
nestin immunostaining of the remaining cells (neuronal progenitor cells) (P19 cells): immunostained positively for nestin
cells differentiating specifically into neuronal lineages (P19 cells; monolayers of P19 cells, neuronal morphology and immunostaining with neuronal specific markers): 30-40%
increase in β-catenin induced TCF/LEF reporter activity [1]: eleven
